Measurements from patent US6410533B1, “Antibacterial compounds” (Genzyme Corporation, priority 2000, dated 2002).
Values after ≈ are worked out from the molar mass of the structure shown. Where two headings read alike, the source gives them in different places. One block for each molecule: values may come before it.

Tests used:
[1] = tested on: methicillin-resistant Staphylococcus aureus (ATCC 33591); test: In vivo mouse intraperitoneal infection, mortality and % survivors over 7 days; details: MRSA ATCC 33591 i.p., ICR mice; for In Vivo, double dose (% of mice rescued): 1 and 5 h post inoculation; for In Vivo, single dose (% of mice rescued): single dose 1 h post inoculation
Experimental: Ten male ICR mice weighing 20 grams were inoculated intraperitoneally with an LD90-100 dose (2-3×10^7 CFU/mouse) of methicillin-resistant Staphylococcus aureus (ATCC 33591) in brain-heart infusion broth containing 5% mucin. Compounds were suspended in a vehicle containing 1% cremophore EL (Sigma) in normal saline and were administered subcutaneously in a volume of 0.4 ml per mouse either 1 hour following bacterial inoculation or 1 and 5 hours post inoculation. Animals receiving two doses of drug were injected subcutaneously in the hindquarter one hour post-innoculation and in the neck area, 5 hours post-innoculation. Deaths occurring during the subsequent 7 days are recorded. Mortality and % survivor endpoints are calculated.

[2] = tested on: Staphylococcus aureus bacteria (ATCC 9604 SV); test: Minimal inhibitory concentration (MIC), broth microdilution; assay type: cell-based; details: 24 h at 37° C.
Experimental: (§1) Minimal inhibitory concentrations (MICs) for Staphylococcus aureus bacteria (ATCC 9604 SV) were determined by broth microdilution methodology following National Committee for Clinical Laboratory Standards. In the MIC determinations, the compounds were incorporated into Mueller-Hinton broth (Becton Dickinson Microbiology systems, Cockeyville, Md.) at a series of concentrations. After the test organism was grown overnight in TB broth, the broths were adjusted to the turbidity equivalent to 0.05 McFarland standard. The suspensions were diluted twenty-fold into the broth containing the compounds. […] In the IC50 determination, the method was modified to allow the rapid growth of the organisms. The inoculum suspensions were adjusted to 0.1 McFarland standard and then diluted two-fold into the wells containing TB broth and the compounds. After three to five hours incubation at 37° C., the turbidity was measured at 550 nm and inhibitory activity was defined as the concentration of antimicrobial agent that inhibits 50% growth of the organism in the microdilution wells.

[3] = tested on: Staphylococcus aureus bacteria (ATCC 9604 SV); test: IC50 determination, growth inhibition by turbidity at 550 nm; assay type: cell-based; details: Staphylococcus aureus ATCC 9604 SV, turbidity at 550 nm after 3-5 h at 37° C.
Experimental: as §1

[4] = Staphylococcus aureus ATCC 9604 SV

SMILES: CCC1=NN(c2cc(Cl)cc(Cl)c2)C(=O)C1=Cc1cccc(C(=O)O)c1 [Compound 58]
In Vivo, double dose (% of mice rescued) ([1]; 2 × 2 mg/kg s.c.): 25% @ 2 × 2 mg/kg
In Vivo, double dose (% of mice rescued) ([1]; 2 × 20 mg/kg s.c.): 12.5% @ 2 × 20 mg/kg
MIC [2, 4]: 6.25 µg/mL (≈ 16.1 µM)

SMILES: CCC1=NN(c2cc(Cl)cc(Cl)c2)C(=O)C1=Cc1ccc(C(=O)O)cc1 [Compound 59]
In Vivo, double dose (% of mice rescued) ([1]; 2 × 2 mg/kg s.c.): 12.5% @ 2 × 2 mg/kg
In Vivo, double dose (% of mice rescued) ([1]; 2 × 20 mg/kg s.c.): 12.5% @ 2 × 20 mg/kg
MIC [2, 4]: 0.400 µg/mL (≈ 1.03 µM)

SMILES: O=C1CC(Cc2ccccc2)=NN1c1cc(Cl)cc(Cl)c1 [Compound 65]
In Vivo, double dose (% of mice rescued) ([1]; 2 × 2 mg/kg s.c.): 0% @ 2 × 2 mg/kg
In Vivo, double dose (% of mice rescued) ([1]; 2 × 20 mg/kg s.c.): 0% @ 2 × 20 mg/kg
MIC [2, 4]: 0.958 µg/mL (≈ 3 µM)

SMILES: O=C1C(CCc2ccccn2)C(c2ccccc2)=NN1c1cc(Cl)cc(Cl)c1 (stereo not drawn) [Compound 66]
In Vivo, double dose (% of mice rescued) ([1]; 2 × 2 mg/kg s.c.): 25% @ 2 × 2 mg/kg
In Vivo, double dose (% of mice rescued) ([1]; 2 × 20 mg/kg s.c.): 0% @ 2 × 20 mg/kg
MIC [2, 4]: 5.13 µg/mL (≈ 12.5 µM)

SMILES: O=C(Nc1cc(C(F)(F)F)cc(C(F)(F)F)c1)Nc1c(-c2ccccc2)cnn1-c1ccc(C(F)(F)F)cc1 [Compound 71]
IC50 [3]: 330 nM

SMILES: CC(C)(C)c1cc(NC(=O)Nc2cc(Cl)cc(Cl)c2)n(-c2ccc(C(F)(F)F)cc2)n1 [Compound 73]
In Vivo, single dose (% of mice rescued) ([1]; 2 mg/kg s.c.): 0% @ 2 mg/kg
In Vivo, single dose (% of mice rescued) ([1]; 20 mg/kg s.c.): 0% @ 20 mg/kg
IC50 [3]: 83 nM

SMILES: O=C(Nc1cc(C(F)(F)F)cc(C(F)(F)F)c1)Nc1cc(Cc2ccccc2)nn1-c1ccc(C(F)(F)F)cc1 [Compound 74]
IC50 [3]: 127 nM
MIC [2, 4]: 3.43 µg/mL (≈ 5.99 µM)

SMILES: O=C(Nc1ccc(Cl)c(C(F)(F)F)c1)Nc1cc(-c2ccccc2)nn1-c1ccc(C(F)(F)F)cc1 [Compound 75]
IC50 [3]: 96 nM
MIC [2, 4]: <0.787 µg/mL

SMILES: O=C(Nc1cc(C(F)(F)F)cc(C(F)(F)F)c1)Nc1cc(-c2ccc(Cl)cc2)nn1-c1ccc(C(F)(F)F)cc1 [Compound 79]
IC50 [3]: 126 nM

SMILES: O=C(Nc1cc(C(F)(F)F)cc(C(F)(F)F)c1)Nc1cc(-c2ccc(OC(F)(F)F)cc2)nn1-c1ccc(C(F)(F)F)cc1 [Compound 81]
IC50 [3]: 159 nM

SMILES: O=C(Nc1cc(C(F)(F)F)cc(C(F)(F)F)c1)Nc1cc(-c2ccccn2)nn1-c1ccc(C(F)(F)F)cc1 [Compound 85]
IC50 [3]: 359 nM

SMILES: O=C(Nc1cc(C(F)(F)F)cc(C(F)(F)F)c1)Nc1cc(-c2ccc(CN3CCOCC3)cc2)nn1-c1ccc(C(F)(F)F)cc1 [Compound 88]
IC50 [3]: 1480 nM
MIC [2, 4]: >32.9 µg/mL

SMILES: CN(C)Cc1cc(NC(=O)Nc2cc(C(F)(F)F)cc(C(F)(F)F)c2)n(-c2ccc(C(F)(F)F)cc2)n1 [Compound 90]
IC50 [3]: 4400 nM
MIC [2, 4]: 13.5 µg/mL (≈ 25 µM)

SMILES: Cc1cc(-c2cc(NC(=O)Nc3cc(Cl)cc(Cl)c3)n(-c3ccc(Br)cc3)n2)no1 [Compound 114]
IC50 [3]: 1630 nM

SMILES: CC(C)(C)c1csc(NC(=O)Nc2cc(C(F)(F)F)cc(C(F)(F)F)c2)n1 [Compound 124]
IC50 [3]: 513 nM

SMILES: O=C(Nc1cc(C(F)(F)F)cc(C(F)(F)F)c1)Nc1nc(CCCO)cs1 [Compound 125]
IC50 [3]: 2070 nM

SMILES: CCOC(=O)c1nc(NC(=O)Nc2cc(C(F)(F)F)cc(C(F)(F)F)c2)sc1C [Compound 128]
In Vivo, single dose (% of mice rescued) ([1]; 2 mg/kg s.c.): 0% @ 2 mg/kg
In Vivo, single dose (% of mice rescued) ([1]; 20 mg/kg s.c.): 0% @ 20 mg/kg
IC50 [3]: 510 nM

SMILES: COc1cccc(-c2csc(NC(=O)Nc3cc(C(F)(F)F)cc(C(F)(F)F)c3)n2)c1 [Compound 134]
IC50 [3]: 4520 nM

SMILES: O=C(Nc1cc(C(F)(F)F)cc(C(F)(F)F)c1)Nc1nc(-c2ccc(Cl)cc2)cs1 [Compound 138, 1-(3,5-Bis-trifluoromethyl-phenyl)-3-[4-(4-chloro-phenyl)-thiazol-2-yl]-urea]
IC50 ([3]; ATCC9604): 100 nM

SMILES: O=C(Nc1cc(C(F)(F)F)cc(C(F)(F)F)c1)Nc1nc(-c2ccc(F)cc2)cs1 [Compound 139]
In Vivo, single dose (% of mice rescued) ([1]; 2 mg/kg s.c.): 0% @ 2 mg/kg
In Vivo, single dose (% of mice rescued) ([1]; 20 mg/kg s.c.): 0% @ 20 mg/kg
IC50 [3]: 100 nM

SMILES: N#Cc1ccc(-c2csc(NC(=O)Nc3cc(C(F)(F)F)cc(C(F)(F)F)c3)n2)cc1 [Compound 144]
IC50 [3]: 337 nM

SMILES: O=C(Nc1cc(C(F)(F)F)cc(C(F)(F)F)c1)Nc1nc(-c2ccc(Cl)cc2Cl)cs1 [Compound 148]
IC50 [3]: 400 nM

SMILES: O=C(Nc1cc(C(F)(F)F)cc(C(F)(F)F)c1)Nc1nc(-c2ccc(Cl)c(Cl)c2)cs1 [Compound 150]
IC50 [3]: 410 nM

SMILES: O=C(Nc1cc(C(F)(F)F)cc(C(F)(F)F)c1)Nc1nc(-c2ccc3ccccc3c2)cs1 [Compound 153]
IC50 [3]: 1450 nM

SMILES: O=C(Nc1cccc(Br)c1)Nc1nc(-c2ccc(Br)cc2)cs1 [Compound 159]
IC50 [3]: 543 nM

SMILES: O=C(Nc1cc(Cl)cc(Cl)c1)Nc1nc(-c2ccc(Cl)cc2)cs1 [Compound 163]
IC50 [3]: 180 nM

SMILES: O=C(Nc1ccc(F)c(C(F)(F)F)c1)Nc1nc(-c2ccc(Br)cc2)cs1 [Compound 166]
IC50 [3]: 205 nM

SMILES: O=C(Nc1nc(-c2ccc(Cl)cc2)cs1)Nc1c(Cl)cc(Cl)cc1Cl [Compound 171]
IC50 [3]: 927 nM

SMILES: CC(C)(C)c1csc(NC(=O)NCc2cccc(Cl)c2)n1 [Compound 172]
In Vivo, double dose (% of mice rescued) ([1]; 2 × 2 mg/kg s.c.): 12.5% @ 2 × 2 mg/kg
In Vivo, double dose (% of mice rescued) ([1]; 2 × 20 mg/kg s.c.): 25% @ 2 × 20 mg/kg
MIC [2, 4]: 8.10 µg/mL (≈ 25 µM)

SMILES: O=C(NCc1cccc(Cl)c1)Nc1nc(C2CCCC2)cs1 [Compound 173]
In Vivo, double dose (% of mice rescued) ([1]; 2 × 2 mg/kg s.c.): 25% @ 2 × 2 mg/kg
In Vivo, double dose (% of mice rescued) ([1]; 2 × 20 mg/kg s.c.): 25% @ 2 × 20 mg/kg
MIC [2, 4]: 8.40 µg/mL (≈ 25 µM)

Other lines, results leading:

IC50 [3]: 206 nM
SMILES: O=C(Nc1cc(C(F)(F)F)cc(C(F)(F)F)c1)Nc1cc(-c2cccc(Cl)c2)nn1-c1ccc(C(F)(F)F)cc1 [Compound 78]

IC50 [3]: 539 nM
SMILES: O=C(Nc1cc(C(F)(F)F)cc(C(F)(F)F)c1)Nc1cc(-c2cccc(C(F)(F)F)c2)nn1-c1ccc(C(F)(F)F)cc1 [Compound 80]

IC50 [3]: 149 nM
SMILES: COc1ccc(-c2cc(NC(=O)Nc3cc(C(F)(F)F)cc(C(F)(F)F)c3)n(-c3ccc(C(F)(F)F)cc3)n2)cc1 [Compound 82]

IC50 ([3]; ATCC9604): 107 nM
MIC ([2]; ATCC9604, Staphylococcus aureus ATCC 9604 SV, read-out: MIC): > 29.3 µg/mL
SMILES: O=C(Nc1cc(C(F)(F)F)cc(C(F)(F)F)c1)Nc1c(Br)cnn1-c1ccc(Br)cc1 [Compound 97, 1-(3,5-Bis-trifluoromethyl-phenyl)-3-[4-bromo-2-(4-bromo-phenyl)-2H-pyrazol-3-yl]-urea]

IC50 [3]: 970 nM
SMILES: O=C(Nc1cc(C(F)(F)F)cc(C(F)(F)F)c1)Nc1nc(-c2ccccc2)cs1 [Compound 132]

IC50 [3]: 4630 nM
SMILES: COc1ccccc1-c1csc(NC(=O)Nc2cc(C(F)(F)F)cc(C(F)(F)F)c2)n1 [Compound 133]

IC50 [3]: 133 nM
SMILES: O=C(Nc1cc(C(F)(F)F)cc(C(F)(F)F)c1)Nc1nc(-c2ccc(Br)cc2)cs1 [Compound 136]

IC50 [3]: 838 nM
SMILES: Cc1sc(NC(=O)Nc2cc(C(F)(F)F)cc(C(F)(F)F)c2)nc1-c1ccc(Br)cc1 [Compound 137]

IC50 [3]: 653 nM
SMILES: Cc1ccc(-c2csc(NC(=O)Nc3cc(C(F)(F)F)cc(C(F)(F)F)c3)n2)cc1 [Compound 140]

IC50 [3]: 1360 nM
SMILES: COc1ccc(-c2csc(NC(=O)Nc3cc(C(F)(F)F)cc(C(F)(F)F)c3)n2)cc1 [Compound 141]

IC50 [3]: 799 nM
SMILES: O=C(Nc1cc(C(F)(F)F)cc(C(F)(F)F)c1)Nc1nc(-c2ccc(-c3ccccc3)cc2)cs1 [Compound 147]

IC50 [3]: 879 nM
SMILES: O=C(Nc1cc(C(F)(F)F)cc(C(F)(F)F)c1)Nc1nc(-c2ccc(F)cc2F)cs1 [Compound 149]

IC50 [3]: 332 nM
SMILES: Cc1c(-c2csc(NC(=O)Nc3cc(C(F)(F)F)cc(C(F)(F)F)c3)n2)sc2ccc(Cl)cc12 [Compound 157]

IC50 [3]: 4710 nM
SMILES: O=C(Nc1nc(-c2ccc(Cl)cc2)cs1)Nc1ccc(Br)cc1C(F)(F)F [Compound 162]

IC50 [3]: 2650 nM
SMILES: O=C(Nc1cc(Cl)cc(Cl)c1)Nc1nc(-c2ccc(F)c(F)c2)cs1 [Compound 164]

IC50 [3]: 175 nM
SMILES: O=C(Nc1ccc(F)c(C(F)(F)F)c1)Nc1nc(-c2ccc(Cl)cc2)cs1 [Compound 167]
